Test results published in patent US20260240913A1, “METHODS FOR PRODUCING STABLE HUMAN CHONDROCTYES AND THEIR USE FOR PROMOTING CARTILLAGE GROWTH AND REPAIR” (Cambridge Enterprise Limited, priority 2023, published 2026).

Legend:
hBMSC/SSC organoids = experiment: Pan-ID inhibition in hBMSC/SSC organoids during chondrogenic differentiation, qRT-PCR of chondro-osteogenic genes; format: cell-based, human
Experimental: Chondrogenic Differentiation of hBMSCs/SSC-derived Organoids: To generate control organoids, 2.5×10^5 hBMSCs/SSCs (passage 2) were suspended in 1 mL chondrogenic medium—which consisted of high glucose Dulbecco's Modified Eagle Medium (DMEM) with sodium pyruvate (ThermoFisher, Cat. No. 11995073), 1% insulin-transferrin-selenium (ThermoFisher, Cat. No. 51500056), 100 nM dexamethasone, 50 ug/mL L-ascorbic acid phosphate magnesium salt n-hydrate, 1% penicillin/streptomycin, and 10 ng/mL TGFβ1 (Peprotech, Cat. No. 100-21)—in 14 mL conical tubes. The same process was employed to generate HyA-FMB organoids, except each conical tube contained 3 mg of pre-sterilized HyA-FMBs (70% ethanol washes overnight), which were constructed according to established protocols (Kuznetsov et al., Stem Cells Translational Medicine, 26, 586-592. //doi.org/10.1016/j.joca.2018.02.293, 2019). […]
qRT-PCR. […] Lysates were processed according to Qiagen's RNeasy Mini Kit with DNAse treatment (Cat. No. 74004), and RNA quality and concentration was measured using NanoDrop. cDNA was constructed using SuperScript III First-Strand Synthesis SuperMix (ThermoFisher, Cat. No. 11752050) with no Reverse Transcriptase added to negative controls. Samples were measured in triplicate using the Quantstudio 6 Flex system (Applied Biosystems), and ΔΔCT values were calculated using GAPDH as internal controls.

Hedgehog = conditions: according to Wu et al. 2021; cited from earlier work
hBMSC/SSC = conditions: chronic BMP blockade; Franco et al. 2022; cited from earlier work
sclerotome cells = experiment: Chondrogenic differentiation of hiPSC-derived sclerotome cells (pellet cultures, chondrospheroids), staining and Incucyte imaging; format: cell-based, human; conditions: pellet cultures from all sclerotome cells; 10 ng/mL each factor; across 42 days
Experimental: Staining Procedure. Paraffin-embedded tissues were used for immunofluorescence. Tissues were sectioned at 7 μm and heated for 1 hour at 60° C., then rehydrated in 2 washes of xylene (5 minutes), 100% ethanol (5 minutes), 95% ethanol (5 minutes), 70% ethanol (5 minutes), and distilled water (5 minute). Two different antigen retrieval methods were used: (1) for staining with COL1A1, COL2A1, COL10A1, PRG4, and hVIMENTIN, tissues were treated with 2 mg/mL hyaluronidase/PBS solution for 1 hour at 37° C., followed by a PBS wash and treatment with Pepsin (Millipore Sigma, Cat. No. R2283) for 5-10 minutes at 37° C.; (2) for staining with MGP, COMP, DPT, ACAN, and ALPL, tissues were incubated in citrate buffer (Millipore Sigma, Cat. No. C9999) for 1 hour at 70° C., followed by a 15-second wash with distilled water. Cytofix/Cytoperm buffer (BD, Cat. No. 554722) was used in some cases to enhance intracellular staining. Tissues were blocked in staining solution—PBS supplemented with 5% donkey serum (Sigma, Cat. No. D9663) and 0.5% IgePal (Sigma, Cat. No. I3021)—for 30 minutes, then stained with primary antibodies overnight at 4° C. […]
Confocal Imaging. […] Maximum intensity projections were merged in Fiji/Image J (National Institutes of Health) for image analysis and quantifications. […]

hBMSCs/SSCs = experiment: scRNA-seq of hBMSC/SSC organoids with or without HyA-FMBs during chondrogenic differentiation; format: cell-based, human; conditions: day 10 of chondrogenic differentiation
Experimental: Chondrogenic Differentiation of hBMSCs/SSC-derived Organoids: To generate control organoids, 2.5×10^5 hBMSCs/SSCs (passage 2) were suspended in 1 mL chondrogenic medium—which consisted of high glucose Dulbecco's Modified Eagle Medium (DMEM) with sodium pyruvate (ThermoFisher, Cat. No. 11995073), 1% insulin-transferrin-selenium (ThermoFisher, Cat. No. 51500056), 100 nM dexamethasone, 50 ug/mL L-ascorbic acid phosphate magnesium salt n-hydrate, 1% penicillin/streptomycin, and 10 ng/mL TGFβ1 (Peprotech, Cat. No. 100-21)—in 14 mL conical tubes. […]
Control and HyA-FMB organoids from days 1-10 and ectopic HyA-FMB transplant were digested in high-glucose DMEM containing 0.2% collagenase II (ThermoFisher, Cat. No. 17101015), 0.1% hyaluronidase (Merck, Cat. No. H3506), and 0.1% dispase (Sigma, Cat. No. D4693) with gentle pipetting every 20-30 minutes. […] Only samples with >95% viability were submitted for single-cell capture, as measured by Vi-CELL BLU Cell Viability Analyzer (Beckman Coulter). […] Reads were mapped using GRCh38-2020-A reference transcriptome, and libraries were processed using Cell Ranger version 7.0. […] Differentially expressed genes, which represented at least 25% of each cluster (p<0.05), were analyzed using gProfiler (biit.cs.ut.ee/gprofiler/gost) for functional enrichment analysis and cell cluster annotation.

CCC(=O)N(CCC(c1ccc2c(c1)OCO2)c1ccccc1OC)Cc1ccccc1 (stereo not drawn) [AGX51]
RUNX2, IBSP and COL1A1 (osteogenic) gene expression (hBMSC/SSC organoids; 30 μM AGX51 every 2-3 days for 28 days, qRT-PCR at days 3, 7, 14, 21, 28, versus vehicle): initial decrease in RUNX2 and IBSP expression at days 3 and 7, followed by an increase in RUNX2, IBSP, and COL1A1 expression from days 21-28 | chondrogenic gene expression (SOX9, ACAN, and COL2A1) (hBMSC/SSC organoids; 30 μM AGX51 for 28 days, qRT-PCR): initially decreased, but stabilized

c1ccc2c(Oc3nc(Nc4ccc(N5CCOCC5)cc4)c4ncn(C5CCCCC5)c4n3)cccc2c1 [purmorphamine]
suitability as Hedgehog agonist for sclerotome induction (Hedgehog): effective substitute for the commercially-synthesized Hedgehog agonist 21K

Cl.c1ccc2c(-c3cnn4cc(-c5ccc(N6CCNCC6)cc5)cnc34)ccnc2c1 [LDN 193189, 4-(6-(4-(piperazin-1-yl)phenyl)pyrazolo[1,5-a]pyrimidin-3-yl)quinoline hydrochloride]
hypertrophic expression (hBMSC/SSC): does not prevent hypertrophic expression

TGFβ1: transforming growth factor β1, recombinant growth factor in chondrogenic medium
matrix protein expression in sclerotome-derived pellet cultures (sclerotome cells): stable COL1A1 and COL2A1 expression across 42 days, with sporadic ACAN and minimal PRG4 expression | IBSP+ cell populations (hBMSCs/SSCs): About 90%
